The structures appear in SMILES notation.

The melting point is the temperature, or range, at which the solid turns liquid. Take `CC(C)NC(=O)c1csc(N2CCC(N3C(=O)OCc4ccccc43)CC2)n1`: the melting point is 214 to 215 °C. In turn, `CC(C)NC(=O)c1cnc(N2CCC(n3c(=O)oc4ccccc43)CC2)c(Cl)c1` [Example 166, 5-Chloro-N-(1-methylethyl)-6-[4-(2-oxo-1,3-benzoxazol-3(2H)-yl)piperidin-1-yl]pyridine-3-carboxantide] gave a melting point of 162 to 168 °C.

Compound `O=C(c1ccccc1)c1ccc(N2CCC(N3C(=O)OCc4ccccc43)CC2)c([N+](=O)[O-])c1` registered a melting point of 272 to 273 °C. For `CC(C)NC(=O)c1cnc(N2CCC(N3C(=O)OCc4ccccc43)CC2)nc1`, the melting point is 236 to 239 °C.

As to `CC(C)S(=O)(=O)Nc1ccc(N2CCC(N3C(=O)OCc4ccccc43)CC2)c(Cl)c1`, the melting point came out at 175 °C. Compound `CC(C)C(=O)Nc1ccc(N2CCC(N3C(=O)OCc4ccccc43)CC2)c(Cl)c1` yielded a melting point of 228 °C. In turn, `CC(C)C[C@H](NC(=O)c1cnc(N2CCC(N3C(=O)OCc4ccccc43)CC2)c(Cl)c1)C(N)=O` registered a melting point of 139 to 142 °C. `CC(C)[C@@H](NC(=O)c1cnc(N2CCC(N3C(=O)OCc4ccccc43)CC2)c(Cl)c1)C(N)=O` came in with a melting point of 140 to 143 °C. `CC(C)NC(=O)c1cnc(N2CC[C@H](N3C(=O)OCc4ccccc43)[C@@H](C)C2)c(Cl)c1.Cl`: the melting point amounted to 195 °C. Turning to `CC(C)NC(=O)c1ccc(N2CCC(N3C(=O)OCc4ccccc43)CC2)c(S(C)(=O)=O)c1`, the melting point fell in the range of 240 to 242 °C. Consider `NC(=O)c1ccccc1C(=O)c1ccc(N2CCC(N3C(=O)OCc4ccccc43)CC2)c([N+](=O)[O-])c1`, for which the melting point fell in the range of 180 to 182 °C. Take `O=C(O)c1ccccc1C(=O)c1ccc(N2CCC(N3C(=O)OCc4ccccc43)CC2)c([N+](=O)[O-])c1`: the melting point was in the range of 243 to 244 °C. The compound `CC(C)NC(=O)c1ccc(N2CCC(N3C(=O)OCc4ccccc43)CC2)c(C#N)c1` came in with a melting point of 200 °C. Then `CC(C)NS(=O)(=O)c1ccc(N2CCC(N3C(=O)OCc4ccccc43)CC2)c([N+](=O)[O-])c1`, with 168 °C; and `CC(CO)NC(=O)c1cnc(N2CCC(N3C(=O)OCc4ccccc43)CC2)c(Cl)c1` (centres unmarked), with 125 to 128 °C; and `N#CC(NC(=O)c1cnc(N2CCC(N3C(=O)OCc4ccccc43)CC2)c(Cl)c1)C(N)=O` (centres unmarked), with 159 to 162 °C.

As to `CN1CCC[C@H]1C(=O)Nc1ccc(N2CCC(N3C(=O)OCc4ccccc43)CC2)c(Cl)c1`, the melting point worked out at 155 °C. Then `Nc1ccc(N2CCC(N3C(=O)OCc4ccccc43)CC2)c(Cl)c1`, with 158 °C. `CC(C)NC(=O)c1ccc(N2CCC(N3C(=O)OCc4ccccc43)CC2)nn1` had a melting point of 120 °C. `CC(C)NC(=O)c1cnc(N2CCC(N3C(=O)COc4ccccc43)CC2)c(Cl)c1` registered a melting point of 85 to 88 °C. The same measure for `O=C(O)c1ccccc1C(=O)c1ccc(N2CCC(N3C(=O)CCc4ccccc43)CC2)c([N+](=O)[O-])c1`: 201 to 203 °C; for `CC(C)NC(=O)c1cnc(N2CCC(N3C(=O)OCc4ccccc43)CC2)nc1C(F)(F)F`: 217 to 219 °C; for `C#CC(C)(C)NC(=O)c1cnc(N2CCC(N3C(=O)OCc4ccccc43)CC2)c(Cl)c1`: 135 to 138 °C. Compound `CC(C)NC(=O)c1ccc(N2CCC(N3C(=O)OCc4ccccc43)CC2)c([N+](=O)[O-])c1` gave a melting point of 193 to 195 °C. `CC(C)C[C@@H](NC(=O)c1cnc(N2CCC(N3C(=O)OCc4ccccc43)CC2)c(Cl)c1)C(N)=O` returned a melting point of 139 to 142 °C. `COCCNC(=O)c1ccc(N2CCC(N3C(=O)OCc4ccccc43)CC2)c([N+](=O)[O-])c1` displayed a melting point of 192 to 193 °C.

`COC(=O)c1ccccc1C(=O)c1ccc(N2CCC(N3C(=O)OCc4ccccc43)CC2)c([N+](=O)[O-])c1` returned a melting point of 177 to 179 °C. Compound `COC(=O)c1ccccc1C(=O)c1ccc(N2CCC(N3C(=O)OCc4ccc(Cl)cc43)CC2)c([N+](=O)[O-])c1` yielded a melting point of 90 to 92 °C.

`O=C1OCc2ccccc2N1C1CCN(c2ccc(NCc3ncc[nH]3)cc2Cl)CC1`: the melting point fell in the range of 222 to 224 °C.

Source of the values: US6812226B2, “P2X7 receptor antagonists for use in the treatment of inflammatory, immune or cardiovascular disease” (AstraZeneca AB, priority 1999, dated 2004).
